Data as given in patent US10689384B2, “Imidazo[1,2-a]quinoxalines and derivatives thereof for the treatment of cancer” (Universite de Montpellier, priority 2014, dated 2020).
Each block holds one compound with its values, some of them ahead of it.

Key:
human cancer cell lines = test: In vitro cytotoxicity study, Summarized results 2 (cell line not given); assay type: cell-based; conditions: Homo sapiens, Table 4, Summarized results 2; cell line not stated
Method: (§1) The goal of this protocol is to study the effects of the compounds on the proliferation of various human cancer cell lines in order to evaluate the EC50 and their activity in cellulo.
(§2) The cells are seeded the day before treatment in 96 well plates. Each compound concentration is tested in triplicate. A 96 well plate can contain 3 compounds.
(§3) Stock solutions of the tested compounds are prepared at 10 mM in 100% DMSO and stored at […].
(§4) The analysis is carried out by using the GraphPad PRISM 5.0 software.
(§5) Day 1: the cells are seeded one day before treatment with the compounds in 96 well plates. Cell suspensions for each cancer cell line are prepared with a specific density in a specific culture medium (see preceding table). Next, 100 µL of cell suspension is distributed per well (1×96 well plate per cell line).
(§6) Day 2: 24 hours later, the […] compounds or controls (DMSO) are added to the cells ([…] of a compound solution in its specific medium with a final DMSO concentration of 0.15%).
(§7) Each compound concentration is tested in triplicate (6 concentrations between 10^−9 M and 10^−5 M per compound). The cells are incubated at 37° C. for 72 hours with no new treatment.
(§8) Day 5: 15 minutes before incubation of the cells with MTT (3-[4,5-dimethylthiazol-2-yl]-2,5-diphenyltetrazolium bromide), 10% SDS is added to the control wells to obtain a final concentration of 1%. The positive control of inhibition of proliferation is 1% SDS.
(§9) Once the medium is removed, 100 µL of a solution of MTT in fresh medium is added to each well (10 μL of 10×MTT solution at 5 mg/mL in PBS +[…] of fresh medium) and the plates are incubated for 4 hours at 37° C.
(§10) The MTT reaction is quenched and the medium is homogenized by addition of […] of 10% SDS/0.01 M HCl solution placed in each well. The medium is incubated for 2 hours at 37° C. before measuring its absorbance. Absorbance is measured at 570 nm.

A2058 = test: In vitro cytotoxicity study, inhibition of cell growth (MTT); assay type: cell-based; conditions: Homo sapiens, A2058, melanoma, 72 hours
Method: as §1, §2
(§11) Cell suspensions for each cancer cell line are prepared in culture medium with a specific density of the specific cell (see the following table). Then, 100 µL of cell suspension is spread per well (plate per one cell line).
as §3, §4, §5, §6, §7, §8, §9, §10

CFPAC-1 = test: as above; assay type: cell-based; conditions: Homo sapiens, CFPAC-1, pancreas, 72 hours
Method: as §1, §2, §11, §3, §4, §5, §6, §7, §8, §9, §10

Capan-1 = test: as above; assay type: cell-based; conditions: Homo sapiens, Capan-1, pancreas, 72 hours
Method: as §1, §2, §11, §3, §4, §5, §6, §7, §8, §9, §10

A375 = test: as above; assay type: cell-based; conditions: Homo sapiens, A-375, A375, melanoma, 72 hours
Method: as §1, §2, §11, §3, §4, §5, §6, §7, §8, §9, §10

T-47D = test: as above; assay type: cell-based; conditions: Homo sapiens, T47D, breast, 72 hours
Method: as §1, §2, §11, §3, §4, §5, §6, §7, §8, §9, §10

COLO-205 = test: as above; assay type: cell-based; conditions: Homo sapiens, COLO-205, colon, 72 hours
Method: as §1, §2, §11, §3, §4, §5, §6, §7, §8, §9, §10

LoVo = test: as above; assay type: cell-based; conditions: Homo sapiens, colon, 72 hours
Method: as §1, §2, §11, §3, §4, §5, §6, §7, §8, §9, §10

PF382 = test: as above; assay type: cell-based; conditions: Homo sapiens, PF-382, PF382, lymphoid, 72 hours
Method: as §1, §2, §11, §3, §4, §5, §6, §7, §8, §9, §10

Calu-1 = test: as above; assay type: cell-based; conditions: Homo sapiens, Calu-1, lung, 72 hours
Method: as §1, §2, §11, §3, §4, §5, §6, §7, §8, §9, §10

HepG2 = test: as above; assay type: cell-based; conditions: Homo sapiens, HepG2, liver, 72 hours
Method: as §1, §2, §11, §3, §4, §5, §6, §7, §8, §9, §10

PC-3 = test: as above; assay type: cell-based; conditions: Homo sapiens, PC-3, prostate, 72 hours
Method: as §1, §2, §11, §3, §4, §5, §6, §7, §8, §9, §10

MEWO = test: as above; assay type: cell-based; conditions: Homo sapiens, melanoma, 72 hours
Method: as §1, §2, §11, §3, §4, §5, §6, §7, §8, §9, §10

AsPC-1 = test: as above; assay type: cell-based; conditions: Homo sapiens, ASPC1, AsPC-1, pancreas, 72 hours
Method: as §1, §2, §11, §3, §4, §5, §6, §7, §8, §9, §10

IPC298 = test: as above; assay type: cell-based; conditions: Homo sapiens, IPC-298, IPC298, melanoma, 72 hours
Method: as §1, §2, §11, §3, §4, §5, §6, §7, §8, §9, §10

BxPC3 = test: as above; assay type: cell-based; conditions: Homo sapiens, BXPC-3, BxPC3, pancreas, 72 hours
Method: as §1, §2, §11, §3, §4, §5, §6, §7, §8, §9, §10

purified tubulin = biological target: T1, purified tubulin (Sus scrofa, UniProt P02550+P02554); test: Effect on the polymerization of purified tubulin (turbidimetry at 350 nm); assay type: biochemical, pig; conditions: 2.4 μM tubulin, 37° C.
T1 construct: Tubulin is prepared from pig brain; from tissue; host or cells: pig brain
Method: FIG. 1. Study of the innovative effect of compounds of the selection patent on the polymerization of purified tubulin. This is a comparative study of the effect on the polymerization of purified tubulin by compounds of the selection patent compared to that of the compounds of the patent FR 2,921,927. Polymerized tubulin absorbs at 350 nm.
Tubulin is prepared from pig brain according to the purification process described by Williams and Lee (1982). Tubulin polymerization is monitored by turbidimetry at 350 nm with an MC2 spectrophotometer (Safas, Monaco) equipped with a heat-jacketed cuvette holder. The reaction mixture was prepared at 0° C., and contains PEM buffer, 25% glycerol (v/v), 1 mM GTP, and 2.4 μM tubulin. The GTP and the tubulin are added at the last minute. […] The same volume of DMSO alone was used as a negative control. The final volume of the sample is […]. The reaction is initiated by placing the cuvette in the cell compartment of the spectrophotometer thermostated at 37° C. Ice is added 45 minutes later to launch depolymerization in order to confirm the specificity of the signal.

T1 sequence (P02550 whole entry): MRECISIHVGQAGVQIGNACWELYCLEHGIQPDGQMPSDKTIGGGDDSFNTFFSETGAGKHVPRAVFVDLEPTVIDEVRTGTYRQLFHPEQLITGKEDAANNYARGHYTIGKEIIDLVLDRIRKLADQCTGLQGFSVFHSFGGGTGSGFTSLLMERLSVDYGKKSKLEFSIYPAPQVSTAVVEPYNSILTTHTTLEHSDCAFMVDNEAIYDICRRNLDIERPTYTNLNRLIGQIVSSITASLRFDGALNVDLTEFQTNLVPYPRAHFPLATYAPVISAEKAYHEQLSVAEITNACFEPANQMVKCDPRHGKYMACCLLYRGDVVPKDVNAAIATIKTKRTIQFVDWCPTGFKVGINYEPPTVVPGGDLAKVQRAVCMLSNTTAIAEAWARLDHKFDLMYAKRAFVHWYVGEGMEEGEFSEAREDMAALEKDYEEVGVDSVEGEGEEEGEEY
T1 sequence (P02554 whole entry): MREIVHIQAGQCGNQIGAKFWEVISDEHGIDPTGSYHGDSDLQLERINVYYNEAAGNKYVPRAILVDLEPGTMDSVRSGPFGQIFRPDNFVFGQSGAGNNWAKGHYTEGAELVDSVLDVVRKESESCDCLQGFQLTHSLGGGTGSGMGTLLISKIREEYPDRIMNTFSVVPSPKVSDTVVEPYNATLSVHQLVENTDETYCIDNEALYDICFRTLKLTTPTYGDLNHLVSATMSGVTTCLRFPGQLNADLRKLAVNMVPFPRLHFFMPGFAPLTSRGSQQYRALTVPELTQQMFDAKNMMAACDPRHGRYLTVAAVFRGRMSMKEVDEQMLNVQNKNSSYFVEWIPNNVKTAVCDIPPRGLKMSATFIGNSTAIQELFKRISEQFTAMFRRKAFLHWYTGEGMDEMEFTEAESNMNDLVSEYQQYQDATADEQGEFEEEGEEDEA

SMILES: NCCCNc1nc2ccccc2n2c(-c3ccc(O)c(O)c3)cnc12 [EAPB 02309, 4-(4-((3-Aminopropyl)amino)imidazo[1,2-a]quinoxalin-1-yl)benzene-1,2-diol]
IC50 (human cancer cell lines): 5590 nM

SMILES: CNc1nc2cc(C#N)ccc2n2c(-c3ccc(O)c(O)c3)cnc12 [EAPB 02303-7c]
IC50 (human cancer cell lines): 6390 nM

SMILES: COc1ccc(-c2cnc3c(N4CCN(C(=O)OC(C)(C)C)CC4)nc4ccccc4n23)cc1OC [EAPB 02213, tert-Butyl 4-(1-(3,4-dimethoxyphenyl)imidazo[1,2-a]quinoxalin-4-yl)piperazine-1-carboxylate]
IC50 (human cancer cell lines): > 10000 nM

Effect on polymerization of purified tubulin (absorbance level at 350 nm) (purified tubulin): leaves it unchanged
SMILES: CNc1nc2ccccc2n2c(-c3ccc(O)c(O)c3)cnc12 [EAPB 02303, 1-(3,4-Dihydroxyphenyl)-N-methylimidazo[1,2-a]quinoxalin-4-amine]
IC50 (human cancer cell lines): < 3 nM | EC50 (A2058): 4 nM | EC50 (CFPAC-1): 12 nM | EC50 (Capan-1): 154 nM | EC50 (A375): 10 nM | EC50 (T-47D): 13 nM | EC50 (COLO-205): 38 nM | EC50 (LoVo): 45 nM | EC50 (PF382): 7 nM | EC50 (Calu-1): 4 nM | EC50 (HepG2): 247 nM | EC50 (PC-3): 12 nM | EC50 (MEWO): 3 nM | EC50 (AsPC-1): 957 nM | EC50 (IPC298): 40 nM | EC50 (BxPC3): 11 nM

SMILES: CNc1nc2cc(C(F)(F)F)ccc2n2c(-c3ccc(O)c(O)c3)cnc12 [EAPB 02303-7a, 4-(4-(Methylamino)-7-(trifluoromethyl)imidazo[1,2-a]quinoxalin-1-yl)benzene-1,2-diol]
IC50 (human cancer cell lines): 6910 nM

Effect on polymerization of purified tubulin (absorbance level at 350 nm) (purified tubulin): decreases the absorbance level
SMILES: CNc1nc2ccccc2n2c(-c3cccc(OC)c3)cnc12 [EAPB0503, 1-(3-methoxyphenyl)-N-methylimidazo[1,2-a]quinoxalin-4-amine, reference compound]
EC50 (A2058): 185 nM | EC50 (CFPAC-1): 598 nM | EC50 (Capan-1): 561 nM | EC50 (A375): 383 nM | EC50 (T-47D): 198 nM | EC50 (COLO-205): 201 nM | EC50 (LoVo): 89 nM | EC50 (PF382): 205 nM | EC50 (Calu-1): 196 nM | EC50 (HepG2): 1360 nM | EC50 (PC-3): 537 nM | EC50 (MEWO): 125 nM | EC50 (AsPC-1): 2800 nM | EC50 (IPC298): 469 nM | EC50 (BxPC3): 159 nM

SMILES: COc1ccc(-c2cnc3c(NCCCCCCNC(=O)OC(C)(C)C)nc4ccccc4n23)cc1OC [EAPB 02212, tert-Butyl (6-((1-(3,4-dimethoxyphenyl)imidazo[1,2-a]quinoxalin-4-yl)amino)hexyl)carbamate]
IC50 (human cancer cell lines): > 10000 nM

SMILES: CNc1nc2cc(OC(F)(F)F)ccc2n2c(-c3ccc(O)c(O)c3)cnc12 [EAPB 02303-7b, 4-(4-(Methylamino)-7-(trifluoromethoxy)imidazo[1,2-a]quinoxalin-1-yl)benzene-1,2-diol]
IC50 (human cancer cell lines): 199 nM

SMILES: COc1ccc(-c2cnc3c(NCCCNC(=O)OC(C)(C)C)nc4ccccc4n23)cc1OC [EAPB 02214, tert-Butyl (3-((1-(3,4-dimethoxyphenyl)imidazo[1,2-a]quinoxalin-4-yl)amino)propyl)carbamate]
IC50 (human cancer cell lines): > 10000 nM

SMILES: COc1ccc(-c2cnc3c(NC(C)C(=O)OC(C)(C)C)nc4ccccc4n23)cc1OC (centres unmarked) [EAPB 02218]
IC50 (human cancer cell lines): > 10000 nM

SMILES: COc1ccc(-c2cnc3c(NCCNC(=O)OC(C)(C)C)nc4ccccc4n23)cc1OC [EAPB 02211, tert-Butyl (2-((1-(3,4-dimethoxyphenyl)imidazo[1,2-a]quinoxalin-4-yl)amino)ethyl)carbamate]
IC50 (human cancer cell lines): > 10000 nM

SMILES: COc1ccc(-c2cnc3c(NC(C(=O)OC(C)(C)C)C(C)C)nc4ccccc4n23)cc1OC (centres unmarked) [EAPB 02220]
IC50 (human cancer cell lines): > 10000 nM

SMILES: CNc1nc2ccccc2n2c(-c3ccc(OC)c(OC)c3)cnc12 [EAPB 02203, 1-(3,4-Dimethoxyphenyl)-N-methylimidazo[1,2-a]quinoxalin-4-amine]
IC50 (human cancer cell lines): 193 nM
